How the values were obtained:
[1] = system: Echinochloa crus-galli (L.) Beauv. var. crusgalli (Ec); assay: Test for herbicidal effect by upland foliage treatment (Test Example 3); format: in vivo; conditions: 100 g/10 a active ingredient, examined at 14th day
Method in brief: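 Potted upland-soil Ec seedlings grown 2 weeks in greenhouse, then foliage-sprayed with water-diluted wettable powder at 100 L per 10 ares, giving 100 g active ingredient per 10 ares. Herbicidal effect scored on a graded standard 14 days after treatment.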

[2] = system: Monochoria vaginalis Presl (Mo); assay: Test for herbicidal effect during breeding period by paddy field water treatment (Test Example 5), Mo; format: in vivo; conditions: paddy field water treatment at 1-leaf stage, 25 g/10 a active ingredient, 30th day
Method: (§1) [table] <Test Example 5> Test For Herbicidal Effect During Breeding Period By Paddy Field Water Treatment A paddy field soil was filled in a plastic pot of 100 cm^2 and subjected to puddling. Seeds of Monochoria vaginalis Presl (Mo) and Scirpus juncoides Roxb. subsp. juncoides Roxb. (Sc) were sowed; water was filled in a depth of 3 cm; and breeding was made. When Mo reached a 1-leaf stage and Sc reached a 2-leaf stage, wettable powders produced in accordance with the Formulation 1 were diluted with water and dropped on the water surface. […] Then, breeding was made in a greenhouse. At the 30th day from the treatment, the herbicidal effect of each wettable powder was examined in accordance with the standard shown in Table 40.

[3] = system: Echinochloa crus-galli (L.) Beauv. var. crusgall (Ec); assay: Test for herbicidal effect by upland field soil treatment (Test Example 2), Ec; format: in vivo
Method in brief: (§2)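 Echinochloa crus-galli and Setaria viridis were sown in upland field soil and covered, then the soil surface was sprayed with water-diluted wettable powder at 100 g active ingredient per 10 ares (100 liters per 10 ares). Plants were grown in a greenhouse and scored on a standard scale on day 21.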

[4] = system: Echinochloa oryzicola Vasing. (Eo); assay: Test for herbicidal effect by paddy field soil treatment (Test Example 1); format: in vivo; conditions: application amount (active ingredient) 100 g/10 a, examined at the 21st day from the treatment, index per Table 40
Method in brief: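 Eo seeds sown in puddled paddy soil under 3 cm water; next day a water-diluted wettable powder was dropped onto the water surface at 100 g active ingredient per 10 ares. Herbicidal effect scored on a standard scale 21 days after treatment, greenhouse-grown.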

[5] = system: Setaria viridis (L.) Beauv. (Se); assay: Test for herbicidal effect by upland field soil treatment (Test Example 2), Se; format: in vivo
Method in brief: as §2

[6] = system: Scirpus juncoides Roxb. subsp. juncoides Roxb. (Sc); assay: Test for herbicidal effect during breeding period by paddy field water treatment (Test Example 5), Sc; format: in vivo; conditions: paddy field water treatment at 2-leaf stage, 25 g/10 a active ingredient, 30th day
Method: as §1

[7] = system: Chenopodium album L. (Ch); assay: Test for herbicidal effect to broadleaf weeds by upland field soil treatment (Test Example 6), Ch; format: in vivo; conditions: 25 g/10 a active ingredient, 30th day
Method: (§3) Test for herbicidal effect to broadleaf weeds by upland field soil treatment
(§4) An upland field soil was filled in a plastic pot of 80 cm^2. Seeds of Polygonum lapathifolium L. subsp. nodosum (Pers.) Kitam. (Po) and Chenopodium album L. (Ch) were sowed, followed by covering with the same soil. Wettable powders produced in accordance with the Formulation 1 were diluted with water and sprayed uniformly on the soil surface using a small sprayer, […] Then, breeding was made in a greenhouse. At the 30th day from the treatment, the herbicidal effect of each wettable powder was examined in accordance with the standard shown in Table 40.

[8] = system: Polygonum lapathifolium L. subsp. nodosum (Pers.) Kitam. (Po); assay: Test for herbicidal effect to broadleaf weeds by upland field soil treatment (Test Example 6), Po; format: in vivo; conditions: 25 g/10 a active ingredient, 30th day
Method: as §3, §4

[9] = application amount (active ingredient) 100 g/10 a, examined at the 21st day from the treatment, index per Table 40
[10] = 100 g/10 a active ingredient, examined at 21st day

| Compound | melting point | Herbicidal effect to Ec [1] | Herbicidal effect to Mo [2] | Herbicidal effect to Ec [3, 9] | Herbicidal effect to Eo [4] | Herbicidal effect to Se [5, 9] | Herbicidal effect to Sc [6] | Herbicidal effect to Ec [3, 10] | Herbicidal effect to Se [5, 10] | Herbicidal effect to Ch [7] | Herbicidal effect to Po [8] |
| --- | --- | --- | --- | --- | --- | --- | --- | --- | --- | --- | --- |
| CC1(C)CC(S(C)(=O)=O)=NO1 [Compound 2-1, 3-methylsulfonyl-5,5-dimethyl-2-isoxazoline] | 82 to 84 °C | – | – | – | – | – | – | – | – | – | – |
| CC(C)Oc1ccccc1CS(=O)(=O)C1=NOC(C)(C)C1 [Compound 1-49] | – | 5 (A herbicidal effect or phytotoxicity of 90% or more) | 5 (A herbicidal effect or phytotoxicity of 90% or more) | 5 (A herbicidal effect or phytotoxicity of 90% or more) | 5 (A herbicidal effect or phytotoxicity of 90% or more) | 5 (A herbicidal effect or phytotoxicity of 90% or more) | 5 (A herbicidal effect or phytotoxicity of 90% or more) | – | – | – | – |
| CCc1ccccc1CS(=O)(=O)C1=NOC(C)(C)C1 [Compound 1-8] | – | 5 (A herbicidal effect or phytotoxicity of 90% or more) | 5 (A herbicidal effect or phytotoxicity of 90% or more) | 5 (A herbicidal effect or phytotoxicity of 90% or more) | 5 (A herbicidal effect or phytotoxicity of 90% or more) | 5 (A herbicidal effect or phytotoxicity of 90% or more) | 4 (A herbicidal effect or phytotoxicity of 70% to less than 90%) | – | – | – | – |
| Cc1cc(C)c(C)c(CS(=O)(=O)C2=NOC(C)(C)C2)c1C [Compound 1-547] | – | 5 (A herbicidal effect or phytotoxicity of 90% or more) | 5 (A herbicidal effect or phytotoxicity of 90% or more) | – | 5 (A herbicidal effect or phytotoxicity of 90% or more) | – | 5 (A herbicidal effect or phytotoxicity of 90% or more) | 5 (A herbicidal effect or phytotoxicity of 90% or more) | 5 (A herbicidal effect or phytotoxicity of 90% or more) | – | – |
| CC1(C)CC(S(=O)(=O)Cc2ccccc2C(F)(F)F)=NO1 [Compound 1-157] | – | 5 (A herbicidal effect or phytotoxicity of 90% or more) | 5 (A herbicidal effect or phytotoxicity of 90% or more) | 5 (A herbicidal effect or phytotoxicity of 90% or more) | 5 (A herbicidal effect or phytotoxicity of 90% or more) | 5 (A herbicidal effect or phytotoxicity of 90% or more) | 5 (A herbicidal effect or phytotoxicity of 90% or more) | – | – | – | – |
| CC1(C)CC(S(=O)(=O)Cc2ccccc2OC(F)(F)F)=NO1 [Compound 1-58] | – | 5 (A herbicidal effect or phytotoxicity of 90% or more) | 4 (A herbicidal effect or phytotoxicity of 70% to less than 90%) | 5 (A herbicidal effect or phytotoxicity of 90% or more) | 5 (A herbicidal effect or phytotoxicity of 90% or more) | 5 (A herbicidal effect or phytotoxicity of 90% or more) | 5 (A herbicidal effect or phytotoxicity of 90% or more) | – | – | – | – |
| CC1(CCl)CC(S(=O)(=O)Cc2ccccc2F)=NO1 (stereo not shown) [Comparative compound 2, reference compound] | – | – | 1 (A herbicidal effect or phytotoxicity of 10% to less than 30%) | – | – | – | 1 (A herbicidal effect or phytotoxicity of 10% to less than 30%) | – | – | – | – |
| CCc1ccccc1CS(=O)(=O)C1=NOC(C)(CCl)C1 (stereo not shown) [Comparative compound 1, reference compound] | – | – | 1 (A herbicidal effect or phytotoxicity of 10% to less than 30%) | – | – | – | 1 (A herbicidal effect or phytotoxicity of 10% to less than 30%) | – | – | – | – |
| CC1(C)CC(S(=O)(=O)Cc2c(F)cccc2F)=NO1 [Compound 1-39, 3-(2,6-difluorobenzylsulfonyl)-5,5-dimethyl-2-isoxazoline] | – | 5 (A herbicidal effect or phytotoxicity of 90% or more) | 5 (A herbicidal effect or phytotoxicity of 90% or more) | 5 (A herbicidal effect or phytotoxicity of 90% or more) | 5 (A herbicidal effect or phytotoxicity of 90% or more) | 5 (A herbicidal effect or phytotoxicity of 90% or more) | 5 (A herbicidal effect or phytotoxicity of 90% or more) | – | – | 5 (A herbicidal effect or phytotoxicity of 90% or more) | 4 (A herbicidal effect or phytotoxicity of 70% to less than 90%) |
| CC1(C)CC(SCc2c(F)cccc2F)=NO1 [Compound 1-38, 3-(2,6-difluorobenzylthio)-5,5-dimethyl-2-isoxazoline] | 77 to 80 °C | – | – | 4 (A herbicidal effect or phytotoxicity of 70% to less than 90%) | 5 (A herbicidal effect or phytotoxicity of 90% or more) | 4 (A herbicidal effect or phytotoxicity of 70% to less than 90%) | – | – | – | – | – |
| CCCOc1ccccc1CS(=O)(=O)C1=NOC(C)(C)C1 [Compound 1-46] | – | 4 (A herbicidal effect or phytotoxicity of 70% to less than 90%) | – | 5 (A herbicidal effect or phytotoxicity of 90% or more) | 5 (A herbicidal effect or phytotoxicity of 90% or more) | 5 (A herbicidal effect or phytotoxicity of 90% or more) | – | – | – | 4 (A herbicidal effect or phytotoxicity of 70% to less than 90%) | 5 (A herbicidal effect or phytotoxicity of 90% or more) |
| CC1(C)CC(S(=O)(=O)Cc2c(F)cccc2[N+](=O)[O-])=NO1 [Compound 1-499] | – | 5 (A herbicidal effect or phytotoxicity of 90% or more) | – | – | 5 (A herbicidal effect or phytotoxicity of 90% or more) | – | – | 5 (A herbicidal effect or phytotoxicity of 90% or more) | 5 (A herbicidal effect or phytotoxicity of 90% or more) | 4 (A herbicidal effect or phytotoxicity of 70% to less than 90%) | 5 (A herbicidal effect or phytotoxicity of 90% or more) |
| CC1(C)CC(S(=O)(=O)Cc2c(Cl)cccc2OCC(F)(F)F)=NO1 [Compound 1-567] | – | 4 (A herbicidal effect or phytotoxicity of 70% to less than 90%) | 5 (A herbicidal effect or phytotoxicity of 90% or more) | – | 5 (A herbicidal effect or phytotoxicity of 90% or more) | – | 5 (A herbicidal effect or phytotoxicity of 90% or more) | 5 (A herbicidal effect or phytotoxicity of 90% or more) | 5 (A herbicidal effect or phytotoxicity of 90% or more) | – | – |
| O=S(=O)(Cc1c(F)cccc1F)C1=NOC2(CCC2)C1 [Compound 1-382] | – | – | 5 (A herbicidal effect or phytotoxicity of 90% or more) | 5 (A herbicidal effect or phytotoxicity of 90% or more) | 5 (A herbicidal effect or phytotoxicity of 90% or more) | 5 (A herbicidal effect or phytotoxicity of 90% or more) | 4 (A herbicidal effect or phytotoxicity of 70% to less than 90%) | – | – | – | – |
